Patent US6737383B1, “Herbicidal oxadiazolidines” (priority 1999, dated 2004)

Assays:
[1] = tested on: giant foxtail; experiment: Test B pre/postemergence giant foxtail; format: in vivo, Setaria faberii
In short: (§1)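 Herbicidal effect was estimated by eye on a ten-point control scale after plants spent twelve to sixteen days in a greenhouse following soil or foliar treatment. Foliar sprays targeted plants at one to four leaves; all doses were formulated in a non-phytotoxic solvent with surfactant.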

[2] = tested on: soybean; experiment: Test B pre/postemergence soybean; format: in vivo, Glycine max
In short: as §1

[3] = tested on: rice; experiment: Test B flood test rice; format: in vivo, Oryza sativa; conditions: for Rice plant response rating (0 to 10 scale, 0 is no effect, 10 is complete control): under heading Pre-emergence; for Rice plant response rating (0 to 10 scale, 0 is no effect, 10 is complete control) / Plant response rating, Rice (0 to 10 scale, 0 is no effect, 10 is complete control): visual evaluation after twelve to sixteen days
In short: (§2)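 Plants were grown to the 2-leaf stage before treatment with test chemical, then held in a greenhouse for twelve to sixteen days. Injury was visually rated against untreated controls on a 0–10 scale, where 0 is no effect and 10 is complete control.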

[4] = tested on: bamyardgrass; experiment: Test B flood test barnyardgrass; format: in vivo, Echinochloa crus-galli; conditions: for Barnyardgrass plant response rating (0 to 10 scale, 0 is no effect, 10 is complete control): under heading Pre-emergence; for Barnyardgrass plant response rating (0 to 10 scale, 0 is no effect, 10 is complete control) / Plant response rating, Barnyardgrass (0 to 10 scale, 0 is no effect, 10 is complete control): visual evaluation after twelve to sixteen days
In short: as §2

[5] = Postemergence, Rate 250 g/ha, scale 0 to 10
[6] = Postemergence, Rate 500 g/ha, scale of 0 to 10 where 0 is no effect and 10 is complete control
[7] = Preemergence, Rate 62 g/ha, scale 0 to 10 (0 no effect, 10 complete control)
[8] = Preemergence, Rate 125 g/ha, scale of 0 to 10 where 0 is no effect and 10 is complete control
[9] = Preemergence, Rate 250 g/ha, scale 0 to 10, 0 is no effect, 10 is complete control
[10] = Preemergence, Rate 500 g/ha, scale 0 to 10, 0 is no effect, 10 is complete control
[11] = Rate 62 g/ha, Postemergence, scale of 0 to 10 where 0 is no effect and 10 is complete control
[12] = Rate 125 g/ha, Postemergence, scale 0 to 10, 0 is no effect, 10 is complete control
[13] = Postemergence block (flood test species), Rate 250 g/ha, scale 0 to 10
[14] = Postemergence section (flood test species), Rate 500 g/ha, scale of 0 to 10 where 0 is no effect and 10 is complete control
[15] = Rate 125 g/ha, Postemergence section (flood test species), scale 0 to 10, 0 is no effect, 10 is complete control
[16] = Rate 62 g/ha, Postemergence (flood test species), scale of 0 to 10 where 0 is no effect and 10 is complete control
[17] = Rate 62 g/ha, Postemergence, scale 0 to 10, 0 no effect, 10 complete control
[18] = Rate 62 g/ha, Postemergence (flood test), scale 0 to 10, 0 no effect, 10 complete control
[19] = Postemergence, Rate 1000 g/ha, scale 0 to 10 (0 no effect, 10 complete control)
[20] = Rate 1000 g/ha, Preemergence, scale 0 to 10 (0 no effect, 10 complete control)
[21] = Pre-emergence, Rate 1000 g/ha, scale 0 to 10 (0 no effect, 10 complete control)
[22] = Rate 125 g/ha, flood test species
[23] = Rate 250 g/ha, Pre-emergence (flood test species), scale 0 to 10, 0 is no effect, 10 is complete control
[24] = Rate 500 g/ha, Pre-emergence, flood test species, scale 0 to 10 (0 no effect, 10 complete control)
[25] = Preemergence, Rate 62 g/ha, scale of 0 to 10 where 0 is no effect and 10 is complete control
[26] = Rate 62 g/ha, flood test species, Pre-emergence

| Structure (SMILES) | Giant foxtail plant response rating [1, 5] | Giant foxtail plant response rating [1, 6] | Plant response rating, Giant foxtail [1, 8] | Giant foxtail plant response rating [1, 9] | Giant foxtail plant response rating [1, 10] | Giant foxtail plant response rating [1, 12] | Soybean plant response rating [2, 5] | Soybean plant response rating [2, 6] | Plant response rating, Soybean [2, 8] | Soybean plant response rating [2, 9] | Soybean plant response rating [2, 10] | Soybean plant response rating [2, 12] | Giant foxtail plant response rating [1, 17] | Soybean plant response rating [2, 17] | Rice plant response rating (0 to 10 scale, 0 is no effect, 10 is complete control) [3, 22] | Rice plant response rating [3, 23] | Rice plant response rating [3, 24] | Barnyardgrass plant response rating (0 to 10 scale, 0 is no effect, 10 is complete control) [4, 22] | Barnyardgrass plant response rating [4, 23] | Barnyardgrass plant response rating [4, 24] | further results |
| --- | --- | --- | --- | --- | --- | --- | --- | --- | --- | --- | --- | --- | --- | --- | --- | --- | --- | --- | --- | --- | --- |
| C=C[Si](C)(C)Cn1c(=O)on(C(=O)N(c2ccc(Cl)cc2)C(C)C)c1=O [Compound 425] | 8 | 9 | 10 | 10 | 10 | 7 | 2 | 3 | 0 | 0 | 0 | 1 |  |  |  |  |  |  |  |  | Plant response rating, Giant foxtail [1, 7]: 10; Giant foxtail plant response rating [1, 11]: 6; Plant response rating, Soybean [2, 7]: 0; Rice plant response rating [3, 13]: 0; Rice plant response rating [3, 14]: 0; Rice plant response rating [3, 15]: 0; Barnyardgrass plant response rating [4, 13]: 1; Barnyardgrass plant response rating [4, 14]: 7; Barnyardgrass plant response rating [4, 16]: 0; Barnyardgrass plant response rating [4, 15]: 0 |
| CCN(C(=O)n1oc(=O)n(C2CCCCCC2)c1=O)C1CCCCC1 [Compound 429] | 2 | 4 | 10 | 10 | 10 | 1 | 2 | 3 | 0 | 0 | 0 | 2 |  |  |  |  |  |  |  |  | Plant response rating, Giant foxtail [1, 7]: 3; Giant foxtail plant response rating [1, 11]: 0; Plant response rating, Soybean [2, 7]: 0; Rice plant response rating [3, 13]: 0; Rice plant response rating [3, 14]: 0; Rice plant response rating [3, 15]: 0; Barnyardgrass plant response rating [4, 13]: 1; Barnyardgrass plant response rating [4, 14]: 7; Barnyardgrass plant response rating [4, 16]: 0; Barnyardgrass plant response rating [4, 15]: 0 |
| CC(C)N(C(=O)n1oc(=O)n(CCC#N)c1=O)c1ccccc1 [Compound 436] | 1 | 9 | 0 | 0 | 10 | 0 | 0 | 4 | 0 | 0 | 0 | 0 | 0 | 0 |  |  |  |  |  |  | Plant response rating, Giant foxtail [1, 7]: 0; Plant response rating, Soybean [2, 7]: 0; Rice plant response rating [3, 13]: 0; Rice plant response rating [3, 14]: 0; Rice plant response rating [3, 18]: 0; Rice plant response rating [3, 15]: 0; Barnyardgrass plant response rating [4, 13]: 0; Barnyardgrass plant response rating [4, 14]: 0; Barnyardgrass plant response rating [4, 18]: 0; Barnyardgrass plant response rating [4, 15]: 0 |
| CCOP(=O)(OCC)C(C)n1c(=O)on(C(=O)N(c2ccccc2)C(C)C)c1=O (stereo not drawn) [Compound 448] | 0 | 0 | 2 | 3 | 9 | 0 | 2 | 5 | 0 | 0 | 0 | 1 |  |  | 0 | 0 | 0 | 0 | 0 | 0 | Giant foxtail plant response rating [1, 19]: 0; Plant response rating, Giant foxtail [1, 20]: 9; Soybean plant response rating [2, 19]: 6; Plant response rating, Soybean [2, 20]: 0; Rice plant response rating [3, 21]: 0; Barnyardgrass plant response rating [4, 21]: 0 |
| C=CC(OC)n1c(=O)on(C(=O)N(c2ccc(F)cc2)C(C)C)c1=O (stereo not drawn) [Compound 452] | 7 | 7 | 3 | 4 | 7 | 4 | 1 |  | 0 | 0 | 0 | 1 | 2 | 1 | 0 | 0 | 0 | 0 | 0 | 0 | Plant response rating, Giant foxtail [1, 25]: 2; Plant response rating, Soybean [2, 25]: 0; Plant response rating, Rice (0 to 10 scale, 0 is no effect, 10 is complete control) [3, 26]: 0; Plant response rating, Barnyardgrass (0 to 10 scale, 0 is no effect, 10 is complete control) [4, 26]: 0 |
| CCC=CCn1c(=O)on(C(=O)N(c2ccccc2)C(C)C)c1=O [Compound 454] | 8 | 9 | 9 | 10 | 10 | 2 | 2 |  | 0 | 0 | 0 | 2 | 2 | 1 | 0 | 0 | 0 | 0 | 0 | 0 | Plant response rating, Giant foxtail [1, 25]: 6; Plant response rating, Soybean [2, 25]: 0; Plant response rating, Rice (0 to 10 scale, 0 is no effect, 10 is complete control) [3, 26]: 0; Plant response rating, Barnyardgrass (0 to 10 scale, 0 is no effect, 10 is complete control) [4, 26]: 0 |
| CC[Si](C)(C)Cn1c(=O)on(C(=O)N(c2ccc(F)cc2)C(C)C)c1=O [Compound 459] | 2 | 5 | 9 | 10 | 10 | 0 | 6 |  | 0 | 0 | 0 | 3 | 0 | 3 | 0 | 0 | 0 | 0 | 0 | 0 | Plant response rating, Giant foxtail [1, 25]: 8; Plant response rating, Soybean [2, 25]: 0; Plant response rating, Rice (0 to 10 scale, 0 is no effect, 10 is complete control) [3, 26]: 0; Plant response rating, Barnyardgrass (0 to 10 scale, 0 is no effect, 10 is complete control) [4, 26]: 0 |
| CC(C)N(C(=O)n1oc(=O)n(COCC[Si](C)(C)C)c1=O)c1ccc(Cl)cc1 [Compound 467] | 2 | 4 | 7 | 9 | 9 | 0 | 0 |  | 0 | 0 | 0 | 0 | 0 | 0 | 0 | 0 | 0 | 0 | 0 | 0 | Plant response rating, Giant foxtail [1, 25]: 0; Plant response rating, Rice (0 to 10 scale, 0 is no effect, 10 is complete control) [3, 26]: 0; Plant response rating, Barnyardgrass (0 to 10 scale, 0 is no effect, 10 is complete control) [4, 26]: 0 |
